In brackets after ≈: the same amount, converted by molar mass. Where two headings read alike, the source gives them in different places.
Key:
[1] = Equilibrium solubility in water, potentiometric (pH-metric) CheqSol method; format: physicochemical; conditions: for solubility: thermodynamic from solid, read-out: equilibrium concentration (solubility, S)
Procedure: Solubility (S) measurements were conducted in water using the CheqSol system at five temperatures: 15 °C, 25 °C, 35 °C, 45 °C, and 55 °C. However, due to the hydrolytic instability of Tegoprazan at elevated temperatures and the pH-dependent nature of the CheqSol assay, reliable measurements could only be obtained at 15 °C and 25 °C. Based on the equilibrium solubility values at these two temperatures, the enthalpy of solution (ΔHsol) was estimated for each polymorph using van’t Hoff plots of ln(S) versus 1/T.
Solubility measurements were performed using the potentiometric (pH-metric) method with the CheqSol system (T3, Sirius Analytical Instruments Ltd., Portsmouth, UK). Unlike pKa determinations, solubility assays require relatively high sample concentrations to ensure saturation across a broad pH range (typically, pH 2 to 12). In this method, the solution is intentionally brought into a supersaturated state to establish “crossing points,” from which the intrinsic (equilibrium) solubility is calculated based on the concentration of the neutral species predominating at specific pH levels. The high initial concentration of the sample promotes supersaturation, leading to precipitation at pH values corresponding to the compound’s pKa. This onset of precipitation reflects the kinetic solubility, which can be characterized by various physicochemical parameters, including the pKa value, saturated pH, sample concentration, temperature, and crystallinity. This study aimed to investigate the temperature dependence of solubility for Polymorphs A and B. Measurements were conducted at five temperatures: 15 °C, 25 °C, 35 °C, 45 °C, and 55 °C.

[2] = Stability of polymorphs under accelerated conditions, followed by DSC and XRD; format: physicochemical; conditions: 40 ± 2 °C, relative humidity 75 ± 5 %, 8-week period; changes seen in the eighth week
Procedure: As a case in point, the stability of the two Tegoprazan polymorphs was evaluated under accelerated conditions (temperature: 40 ± 2 °C, relative humidity: 75 ± 5 HR%) over an 8-week period, with observations for any significant changes conducted using DSC (Differential Scanning Calorimetry) and XRD (X-ray diffraction). […] Therefore, it is essential to elucidate the details of this phenomenon. For quantitative phase analysis and similar studies, knowledge of the crystal structure is crucial. However, the crystal structures of Polymorphs A and B remain unresolved. In response to this need, we explored a practical approach to crystal structure analysis by utilizing readily available powder samples, laboratory-scale XRD instruments, and cost-efficient Rietveld refinement software specifically EXPO2014 (expo version 1.22.11). The known method of SDPD (Structure Determination from Powder Diffraction) was considered as one potential solution to address these challenges. While X-ray diffraction often utilizes synchrotron radiation or other advanced accelerator-based facilities, the crystal structures of Tegoprazan Polymorphs A and B were analyzed using laboratory-based X-ray diffraction (XRD) equipment and powdered samples. This approach was chosen for the following reasons: […]

| equilibrium concentration (solubility, S) ([1]; 15 °C) | equilibrium concentration (solubility, S) ([1]; 25 °C) | solid-state stability (changes by DSC and XRD) [2] | solubility ([1]; 15 °C, 15 °C) | solubility ([1]; 25 °C, 25 °C) | SMILES |
| --- | --- | --- | --- | --- | --- |
| 1476 µM | 2118 µM | phase transition to Polymorph A | – | – | Cc1nc2c(OC3CCOc4cc(F)cc(F)c43)cc(C(=O)N(C)C)cc2[nH]1 [Polymorph B, (S)-4-((5,7-difluorochroman-4-yl)oxy)-N,N,2-trimethyl-1H-benzo[d]imidazole-6-formamide] |
| – | – | No changes | 1250 µM (≈ 483 µg/mL) | 1440 µM (≈ 557 µg/mL) | Cc1nc2c(OC3CCOc4cc(F)cc(F)c43)cc(C(=O)N(C)C)cc2[nH]1 [Polymorph A, (S)-4-((5,7-difluorochroman-4-yl)oxy)-N,N,2-trimethyl-1H-benzo[d]imidazole-6-formamide] |
